The values that follow come from patent US12194080B2, “Methods for identification, assessment, prevention, and treatment of metabolic disorders using PM20D1 and N-lipidated amino acids” (Dana-Farber Cancer Institute, Inc., priority 2015, dated 2025).

One test has as its target T1, mouse PM20D1 (Mus musculus, UniProt Q8C165).
T1 construct: Full-length mouse Pm20d1 cDNA (GE Dharmacon) was subcloned with an in-frame C-terminal 6× His and FLAG® tag; made in house; host or cells: 293A (HEK293A) cells stably infected with retrovirus
T1 sequence (Q8C165 25-503): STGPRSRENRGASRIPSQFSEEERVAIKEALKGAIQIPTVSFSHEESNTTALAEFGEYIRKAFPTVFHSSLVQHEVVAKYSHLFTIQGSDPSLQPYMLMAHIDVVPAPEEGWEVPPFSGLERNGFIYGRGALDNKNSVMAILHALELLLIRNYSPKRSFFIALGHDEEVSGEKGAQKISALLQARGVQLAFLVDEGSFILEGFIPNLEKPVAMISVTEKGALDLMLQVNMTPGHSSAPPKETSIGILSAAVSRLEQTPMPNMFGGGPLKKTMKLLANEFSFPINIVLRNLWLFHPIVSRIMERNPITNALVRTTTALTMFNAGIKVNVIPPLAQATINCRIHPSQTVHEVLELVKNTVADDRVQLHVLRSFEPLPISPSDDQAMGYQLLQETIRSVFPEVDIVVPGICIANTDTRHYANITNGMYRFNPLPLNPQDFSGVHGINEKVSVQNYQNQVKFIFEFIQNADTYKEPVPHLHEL
The test is described as follows: In vitro PM20D1-catalyzed N-acyl amino acid hydrolysis. The format is biochemical. To be noted: N-acyl amide substrate 100 μM.

In test [1] the test system is Diet induced obese (DIO) mice. Briefly: Indirect calorimetry (CLAMS) of high fat diet/DIO mice treated with N-acyl amino acids. The format is in vivo, mouse. The procedure:
Animal experiments were performed according to procedures approved by the Beth Israel Deaconess Medical Center IACUC. Mice were maintained in 12 h light-dark cycles at 22° C. and fed a standard irradiated rodent chow diet. All experiments on wild-type mice were performed with male C57BL/6 mice purchased from Jackson Laboratories, except for the AAV experiments, which were performed with male C57BL/6 mice from Charles River. UCP1-KO (stock #017476) and 16-20 week DIO mice (stock #380050) were obtained from Jackson Laboratories. For AAV injection experiments, mice were gently warmed using a 250 W clear infrared heat lamp, immobilized, and injected via tail vein with 10^10 virus/mouse (diluted in saline) in a total volume of 100 μl/mouse. Where indicated, mice were placed on high-fat diet (60% fat, Research Diets). For cold exposure experiments, mice were group housed and placed at 4° C. for the indicated times. For the preparation of C18:1-Phe for in vivo injections, compounds were dissolved in 18:1:1 v/v/v saline:Kolliphor® EL (Sigma Aldrich):DMSO and sonicated until homogeneous. Mice were administered compounds at 5 μl/g body weight at the indicated doses. For all injection experiments, mice were mock injected with saline daily for 3 days prior to the start of the experiments. For glucose tolerance tests (GTTs), mice received their final dose of compound the day prior to the assay and were then fasted overnight. Glucose was administered at 1.5 g/kg.
Energy expenditure, O2 consumption, CO2 production, respiratory exchange ratio, total locomotor activity, and food intake measurements were made with a 16-cage Columbus Instruments Oxymax Comprehensive Lab Animal Monitoring System (CLAMS) at ambient room temperature (21-23° C.). Mice were acclimated for one day in metabolic cages prior to data collection. Whole-body composition was assessed with an EchoMRI™ 3-in-1 on conscious mice.

Where [2] appears, read: daily i.p.: C18:1-Leu 25, C18:1-Phe 30, C20:4-Gly 15 mg/kg/day.

“Also recorded” adds a separate entry of the source.

With `CCCCCCCC/C=C\CCCCCCCC(=O)N[C@@H](Cc1ccccc1)C(=O)O` [C18:1-Phe, Oleoyl-L-phenylalanine], the “substrate of the PM20D1 hydrolysis reaction” value at mouse PM20D1 was “substrates; also recorded: liberated free oleate”. The movement entry in test [1] (16-week high fat diet mice, 10 mg/kg daily, days 5 and 6) is “similar”; in test [1] (setting [2]) it was “no effects”. Moreover, in test [1] (setting [2]), the VO2 result is on record as “significantly augmented”.
